The text below walks through data of US20250099511A1, “PHARMACEUTICAL COMPOSITION FOR PREVENTING OR TREATING CANCER” (ENTEROBIOME INC., priority 2022, published 2025).

In brackets after ≈: the same amount, converted by molar mass. Like-named read-outs stand apart in the source and are kept apart here.

Common to all, as to assay type: cell-based
For experiment [1], the system named is Bacteroides thetiotaomicron ATCC 29741. Nature of the experiment: MIC by broth microdilution (CLSI), QC strain. On the technique in general: In broth dilution the organism is exposed to a series of concentrations in liquid medium.
In experiment [2] the test system is Faecalibacterium prausnitzii A2-165. In words: MIC by broth microdilution (CLSI), type strain. To be noted: for susceptibility category (S/I/R) by MIC breakpoints: strain A2-165; for MIC: test strain A2-165.
Experiment [3] deals with Faecalibacterium prausnitzii EB-FPDK3. Nature of the experiment: MIC by broth microdilution (CLSI). The note with it: for susceptibility category (S/I/R) by MIC breakpoints: strain EB-FPDK3; for MIC: test strain EB-FPDK3.
Experiment [4] has as its system Faecalibacterium prausnitzii EB-FPDK9. In words: MIC by broth microdilution (CLSI). The note with it: for susceptibility category (S/I/R) by MIC breakpoints: strain EB-FPDK9; for MIC: test strain EB-FPDK9.
Experiment [5] relates to Faecalibacterium prausnitzii EB-FPDK11. In words: MIC by broth microdilution (CLSI). The note with it: for susceptibility category (S/I/R) by MIC breakpoints: strain EB-FPDK11; for MIC: test strain EB-FPDK11.
Experiment [6] deals with Faecalibacterium prausnitzii EB-FPYYK1. Nature of the experiment: MIC by broth microdilution (CLSI). The note with it: for susceptibility category (S/I/R) by MIC breakpoints: strain EB-FPYYK1; for MIC: test strain EB-FPYYK1.
The subject of experiment [7] is Faecalibacterium prausnitzii strains of the present invention. Nature of the experiment: Antimicrobial susceptibility, summary for all strains. The note with it: all Faecalibacterium prausnitzii strains of Table 5.
[8] abbreviates: Faecalibacterium prausnitzii, A2165, read-out: MIC.
[9] abbreviates: Faecalibacterium prausnitzii, EBFPDK3, read-out: MIC.
[10] abbreviates: Faecalibacterium prausnitzii, EBFPDK9, read-out: MIC.
Setting [11] is: Faecalibacterium prausnitzii, EBFPDK11, read-out: MIC.
The mark [12] stands for this setting: Faecalibacterium prausnitzii, EBFPYYK1, read-out: MIC.

One may read the MIC as the lowest concentration that inhibits growth of the organism. On to piperacillin-tazobactam [PTZ], for which the MIC is 8/4 in experiment [1] (QC ATCC 29741); >256/4 in experiment [2]; 32/4 in experiment [3]; 32/4 in experiment [4]; >256/4 in experiment [5]; >256/4 in experiment [6]. In addition, the “susceptibility category (S/I/R) by MIC breakpoints” value (from here on “susceptibility category (S/I/R)”) in experiment [2] (PTZ breakpoints) is “(R) (≥128/4)”; in experiment [3] (PTZ breakpoints), “(S) (≤32/4)”; in experiment [4] (PTZ breakpoints), “(S) (≤32/4)”; in experiment [5] (PTZ breakpoints), “(R) (≥128/4)”; in experiment [6] (PTZ breakpoints), “(R) (≥128/4)”.

Turning to `CO/N=C(\C(=O)N[C@@H]1C(=O)N2C(C(=O)O)=CCS[C@H]12)c1csc(N)n1` [CTZ, ceftizoxime], the minimum inhibitory concentration (MIC) in experiment [1] (Bacteroides, ATCC29741) was 16 µg/mL (≈ 41.7 µM); in experiment [2] (setting [8]), 64 µg/mL (≈ 167 µM); in experiment [3] (setting [9]), 16 µg/mL (≈ 41.7 µM); in experiment [4] (setting [10]), 128 µg/mL (≈ 334 µM); in experiment [5] (setting [11]) it was 128 µg/mL (≈ 334 µM); in experiment [6] (setting [12]), 128 µg/mL (≈ 334 µM). Further, the “susceptibility category (S/I/R)” value was “(I) (64)” in experiment [2] (CTZ breakpoints); “(S) (≤32)” in experiment [3] (CTZ breakpoints); “(R) (≥128)” in experiment [4] (CTZ breakpoints); “(R) (≥128)” in experiment [5] (CTZ breakpoints); “(R) (≥128)” in experiment [6] (CTZ breakpoints).

`COc1c(N2C[C@@H]3CCCN[C@@H]3C2)c(F)cc2c(=O)c(C(=O)O)cn(C3CC3)c12` [MXF, moxifloxacin]: the MIC in experiment [1] (Bacteroides, ATCC29741) was 8 µg/mL (≈ 19.9 µM); in experiment [2] (setting [8]), 16 µg/mL (≈ 39.9 µM); in experiment [3] (setting [9]), greater than 32 µg/mL; in experiment [4] (setting [10]) it was 32 µg/mL (≈ 79.7 µM); in experiment [5] (setting [11]), 32 µg/mL (≈ 79.7 µM); in experiment [6] (setting [12]), greater than 32 µg/mL. Also, the “susceptibility category (S/I/R)” value in experiment [2] (MXF breakpoints), in experiment [3] (MXF breakpoints), in experiment [4] (MXF breakpoints), in experiment [5] (MXF breakpoints) and in experiment [6] (MXF breakpoints) was “(R) (≥8)” in each case.

Turning to `C[C@@H](O)[C@H]1C(=O)N2C(C(=O)O)=C(S[C@@H]3CN[C@H](C(=O)N(C)C)C3)[C@H](C)[C@H]12` [MEM, meropenem], the MIC in experiment [1] (Bacteroides, ATCC29741) is 0.5 µg/mL (≈ 1.3 µM); in experiment [2] (setting [8]) it was greater than 64 µg/mL; in experiment [3] (setting [9]), greater than 64 µg/mL; in experiment [4] (setting [10]) it was greater than 64 µg/mL; in experiment [5] (setting [11]), greater than 64 µg/mL; in experiment [6] (setting [12]) it was greater than 64 µg/mL. Moreover, the “susceptibility category (S/I/R)” value in experiment [2] (MEM breakpoints), in experiment [3] (MEM breakpoints), in experiment [4] (MEM breakpoints), in experiment [5] (MEM breakpoints) and in experiment [6] (MEM breakpoints) was “(R) (≥16)” throughout.

Turning to `Cc1ncc([N+](=O)[O-])n1CCO` [MTZ, metronidazole], the MIC in experiment [1] (Bacteroides, ATCC29741) was 2 µg/mL (≈ 11.7 µM); in experiment [2] (setting [8]), 4 µg/mL (≈ 23.4 µM); in experiment [3] (setting [9]), 1 µg/mL (≈ 5.84 µM); in experiment [4] (setting [10]), less than 0.25 µg/mL; in experiment [5] (setting [11]), 0.5 µg/mL (≈ 2.92 µM); in experiment [6] (setting [12]), 2 µg/mL (≈ 11.7 µM). The “susceptibility category (S/I/R)” value in experiment [2] (MTZ breakpoints), in experiment [3] (MTZ breakpoints), in experiment [4] (MTZ breakpoints), in experiment [5] (MTZ breakpoints) and in experiment [6] (MTZ breakpoints) was “(S) (≤8)” throughout. For the same molecule, the “susceptibility or resistance of all the strains to the antibiotic” value in experiment [7] is “susceptibility”.

As to `CCC[C@@H]1C[C@@H](C(=O)N[C@@H]([C@H]2O[C@H](SC)[C@H](O)[C@@H](O)[C@H]2O)[C@H](C)Cl)N(C)C1` [CLI, clindamycin], the “susceptibility category (S/I/R)” value in experiment [2] (CLI breakpoints), in experiment [3] (CLI breakpoints), in experiment [4] (CLI breakpoints), in experiment [5] (CLI breakpoints) and in experiment [6] (CLI breakpoints) was “(S) (≤2)” throughout. Further, the MIC in experiment [2] (setting [8]), in experiment [3] (setting [9]), in experiment [4] (setting [10]), in experiment [5] (setting [11]) and in experiment [6] (setting [12]) was no more than 0.125 µg/mL throughout.

`O=C(N[C@H](CO)[C@H](O)c1ccc([N+](=O)[O-])cc1)C(Cl)Cl` [CHL, chloramphenicol]: the MIC in experiment [1] (Bacteroides, ATCC29741) was determined as 8 µg/mL (≈ 24.8 µM); in experiment [2] (setting [8]) it was 64 µg/mL (≈ 198 µM); in experiment [3] (setting [9]) it was 8 µg/mL (≈ 24.8 µM); in experiment [4] (setting [10]), 32 µg/mL (≈ 99 µM); in experiment [5] (setting [11]), 8 µg/mL (≈ 24.8 µM); in experiment [6] (setting [12]), 256 µg/mL (≈ 792 µM). Also, the “susceptibility category (S/I/R)” value in experiment [2] (CHL breakpoints) is listed as “(R) (≥32)”; in experiment [3] (CHL breakpoints), “(S) (≤8)”; in experiment [4] (CHL breakpoints), “(R) (≥32)”; in experiment [5] (CHL breakpoints) it was “(S) (≤8)”; in experiment [6] (CHL breakpoints) it was “(R) (≥32)”.
